Test results reported in patent USRE48461E1, “Modulation of androgen receptor expression” (Ionis Pharmaceuticals, Inc., priority 2012, dated 2021).
Oligonucleotides are written 5' to 3', each unit as a sugar letter and its base; * is a phosphorothioate linkage, no mark a phosphodiester; rarer units and linkages stand in square brackets, end groups in braces. Plain capitals give the bases only. k = constrained ethyl (cEt); [5mC] = 5-methylcytosine; d = 2'-deoxy (DNA)

Columns and labels:
[1] = cynomolgus monkey, in vivo, sc, 40 mg/kg
Experimental: (§1) Prior to the study, the monkeys were kept in quarantine for a 30-day period, during which the animals were observed daily for general health. The monkeys were 2-4 years old and weighed between 2 and 4 kg. Thirteen groups of four randomly assigned male cynomolgus monkeys each were injected subcutaneously with ISIS oligonucleotide or PBS. PBS solution or ISIS oligonucleotides, at a dose of 40 mg/kg, were administered with a loading regimen consisting of four doses on the first week of the study (days 1, 3, 5, and 7), followed by a maintenance regimen consisting of once weekly administration starting on Day 14 (weeks 2 to 6). Subcutaneous injections were performed in clock-wise rotations at 4 sites on the back; one site per dose. The injection sites were delineated by tattoo, while sedated using ketamine, and were separated by a minimum of 3 cm.
To evaluate the effect of ISIS oligonucleotides on the overall health of the animals, body and organ weights were measured.

[2] = cynomolgus monkey, in vivo, sc, 40 mg/kg; remark: listed apart in the source
[3] = cynomolgus monkey, in vivo, sc, 40 mg/kg; remark: listed apart in the source
[4] = cynomolgus monkey, in vivo, sc, 40 mg/kg; remark: listed apart in the source
Experimental: as §1
To evaluate the effect of ISIS oligonucleotides on kidney function, the monkeys were fasted overnight. Approximately, 1.5 mL of blood samples were collected from all the study groups on day 44. Blood was collected in tubes without anticoagulant for serum separation. The tubes were kept at room temperature for a minimum of 90 min and then centrifuged at 3,000 rpm for 10 min. Levels of BUN and creatinine were measured using a Toshiba 120FR NEO chemistry analyzer (Toshiba Co., Japan).

[5] = cynomolgus monkey, in vivo, sc, 40 mg/kg; remark: listed apart in the source
[6] = test system: AR mRNA; assay: Antisense inhibition of human AR in HuVEC cells, single concentration (electroporation, qRT-PCR RTS3559); format: cell-based; conditions: Table 25, 1,000 nM oligonucleotide, electroporation, approximately 24 hours, relative to untreated control
Procedure, shortened: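 AR mRNA levels were measured with human primer-probe set RTS3559 and adjusted for total RNA (RIBOGREEN). Cells were HuVEC, with each antisense oligonucleotide delivered by electroporation at one concentration.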

[7] = test system: AR mRNA; assay: Dose-dependent antisense inhibition of human AR in HuVEC cells (electroporation, qRT-PCR RTS3559, IC50); format: cell-based; conditions: Table 36, HuVEC, electroporation, approximately 16 hours
Procedure, shortened: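 HuVEC cells dosed with antisense oligonucleotides by electroporation and treated approximately 16 hours. AR mRNA quantified by real-time qPCR with primer probe set RTS3559 and normalised to total RNA by RIBOGREEN; IC50 from dose-response.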

[8] = test system: AR mRNA; assay: AR mRNA in LnCaP cells by free uptake (hAR_LTS00943); format: cell-based, human; conditions: 24 hrs
Experimental: Cells were plated at a concentration of 4,000 cells/well in 96-well plates. ISIS oligonucleotides, specified in Table 68, were added individually at 0.02 μM, 0.10 μM, 0.50 μM, 2.50 μM, or 10.00 μM. After an incubation period of 24 hrs, mRNA levels were measured using primer probe set hAR_LTS00943.

[9] = test system: AR mRNA; assay: AR mRNA in liver, heart, skeletal muscle, kidney, prostate of cynomolgus monkeys; format: in vivo; conditions: cynomolgus monkey, 40 mg/kg subcutaneously
Experimental: Cynomolgus monkeys were treated with ISIS antisense oligonucleotides selected from studies described above. Antisense oligonucleotide efficacy and tolerability were evaluated. The human antisense oligonucleotides tested are cross-reactive with the rhesus genomic sequence (GENBANK Accession No. NW_001218131.1 truncated from nucleotides 134001 to 308000 and designated herein as SEQ ID NO: 189). The target start site and target region of each oligonucleotide to SEQ ID NO: 189, as well as the details of their chemistry and sequence, is presented in Table 133.
RNA was extracted from liver, heart, skeletal muscle, kidney, and prostate tissues for real-time PCR analysis of AR using primer probe set RTS3559. The results were normalized to RIBOGREEN®. Results are presented as percent inhibition of AR mRNA, relative to PBS control.

Substance: TGATTTAATGGTTGCA [ISIS 569213] (cEt/MOE gapmer chemistry, further chemistry not given here)
- Body Wt [1]: 2.4 kg
- Heart weight [1]: 8.3 g
- Kidney weight [1]: 16 g
- Liver weight [1]: 69 g
- Mesenteric lymph nodes weight [1]: 2.4 g
- Spleen weight [1]: 5.3 g
- ALT [2]: 47 IU/L
- AST [2]: 80 IU/L
- Albumin [2]: 3.7 g/dL
- HCT [3]: 42%
- Hemoglobin [3]: 12.5 g/dL
- Platelets [3]: 426000 µL
- RBC [3]: 5.6e+06 µL
- WBC [3]: 12900 µL
- Plasma BUN [4]: 29.4 mg/dL
- Plasma Creatinine [4]: 0.91 mg/dL
- C3 (% of baseline) [5]: 60 % of baseline
- CRP [5]: 2.8 mg/dL

Substance: 584269 (k[5mC]*k[5mC]*kT*dT*dA*dT*dG*dG*dA*dT*dG*d[5mC]*dT*kG*k[5mC]*kT) [compound 584269]
- % inhibition [6]: 57%
- percent inhibition of AR, 46.9 nM ([7]; 46.9 nM): 6%
- percent inhibition of AR, 187.5 nM ([7]; 187.5 nM): 26%
- percent inhibition of AR, 750.0 nM ([7]; 750.0 nM): 69%
- percent inhibition of AR, 3000.0 nM ([7]; 3000.0 nM): 92%
- IC50 [7]: 340 nM
- Percent inhibition of AR mRNA ([8]; 0.02 μM): 0%
- Percent inhibition of AR mRNA ([8]; 0.1 μM): 0%
- Percent inhibition of AR mRNA ([8]; 0.5 μM): 0%
- Percent inhibition of AR mRNA ([8]; 10 μM): 23%
- Percent Inhibition of AR mRNA relative to the PBS control, Heart ([9]; weeks 1 to 6, Heart): 72%
- Percent Inhibition of AR mRNA relative to the PBS control, Kidney ([9]; weeks 1 to 6, Kidney): 92%
- Percent Inhibition of AR mRNA relative to the PBS control, Liver ([9]; weeks 1 to 6, Liver): 96%
- Percent Inhibition of AR mRNA relative to the PBS control, Prostate ([9]; weeks 1 to 6, Prostate): 41%
- Percent Inhibition of AR mRNA relative to the PBS control, Skeletal Muscle ([9]; weeks 1 to 6, Skeletal Muscle): 76%
